Measured values reported in patent publication US20250250287A1, “HETEROCYCLIC COMPOUNDS, COMPOSITIONS THEREOF, AND METHODS OF TREATMENT THEREWITH” (BeiGene Switzerland GmbH, priority 2022, published 2025).

Tests used:
[1] = test system: pERK1/2(THR202/TYR204) level in SW620 cell line (KRAS G12V); assay: KRAS G12V pERK assay (HTRF) in SW620 cell line; format: cell-based; conditions: Homo sapiens, SW-620, 2 h, SW620 cells, 2 hrs compound treatment
Method: (§1) SW620 cell line was used in this study. Cells were maintained in RPMI 1640 supplemented with 10% fetal bovine serum (Thermo Fisher), 50 units/mL penicillin and streptomycin (Thermo Fisher) and kept at 37° C. in a humidified atmosphere of 5% CO2 in air. Cells were reinstated from frozen stocks that were laid down within 30 passages from the original cells purchased. 40000 cells per well were seeded into a 96-well plate and incubated overnight. Cells were treated with a 10-point dilution series. The final compound concentration is from 0 to 10 μM. After 2 hrs compound treatment, cells were lysed, and the pERK1/2(THR202/TYR204) level in the cell lysates was detected by HTRF kit (Cisbio). In brief, a total of 16 μL of cell lysate from each well of a 96-well plate was transferred to a 384-well white assay plate. Lysate from each well was incubated with 2 μL of Eu3+-cryptate (donor) labeled anti-phospho-ERK1/2 and 2 μL of D2 (acceptor) labeled anti-phospho-ERK1/2 antibodies (Cisbio) overnight in dark at room temperature. When donor and acceptor are in close proximity, excitation of the donor with laser triggers a Fluorescence Resonance Energy Transfer (FRET) towards the acceptor, which in turn fluoresces at 655 nm wavelength. FRET signals were measured using a PHERAstar FSX reader (BMG Labtech). IC50 determination was performed by fitting the curve of percent inhibition versus the log of the inhibitor concentration using Dotmatics.

[2] = test system: pERK1/2(THR202/TYR204) level in AsPC-1 cell line (KRAS G12D); assay: KRAS G12D pERK assay (HTRF) in AsPC-1 cell line; format: cell-based; conditions: Homo sapiens, ASPC1; AsPC-1 cells, 2 h compound treatment
Method: as §1, with “AsPC-1” for “SW620”, “RPMI-1640” for “RPMI 1640”, “30000” for “40000”, “h” for “hrs”, “IC50 determination was performed by fitting the curve of percent inhibition versus the log of the inhibitor concentration using Dotmatics.” left out

| IC50 [1] [nM] | IC50 [2] [nM] | SMILES |
| --- | --- | --- |
| 5.9 | 6.3 | C#Cc1c(F)ccc2cc(O)cc(-c3nc4c5c(nc(OC[C@@]67CCCN6C[C@H](F)C7)nc5c3F)N3CCCC[C@H]3CO4)c12 [Example 16, 5-ethynyl-6-fluoro-4-((S)-1-fluoro-11-(((2R,7aS)-2-fluorotetrahydro-1H-pyrrolizin-7a(5H)-yl)methoxy)-5,5a,6,7,8,9-hexahydro-4-oxa-3,9a,10,12-tetraazabenzo[4,5]cyclohepta[1,2,3-d]naphthalen-2-yl)naphthalen-2-ol] |
| 56 |  | Cc1cc(N)cc(-c2nc3c4c(nc(OC[C@@]56CCCN5C[C@H](F)C6)nc4c2F)N2CCC[C@@H]2CCO3)c1C(F)(F)F [Example 12, 3-((R)-7-fluoro-5-(((2R,7aS)-2-fluorotetrahydro-1H-pyrrolizin-7a(5H)-yl)methoxy)-1,2,3,11,12,12a-hexahydro-10-oxa-3a,4,6,9-tetraazacyclopenta[4,5]cycloocta[1,2,3-de]naphthalen-8-yl)-5-methyl-4-(trifluoromethyl)aniline] |
| 15 |  | C#Cc1c(F)ccc2cc(O)cc(-c3nc4c5c(nc(OC[C@@]67CCCN6C[C@H](F)C7)nc5c3F)N3C[C@@H](O)CC[C@H]3CO4)c12 [Example 35, (5aS,8S)-2-(8-ethynyl-7-fluoro-3-hydroxynaphthalen-1-yl)-1-fluoro-11-(((2R,7aS)-2-fluorotetrahydro-1H-pyrrolizin-7a(5H)-yl)methoxy)-5,5a,6,7,8,9-hexahydro-4-oxa-3,9a,10,12-tetraazabenzo[4,5]cyclohepta[1,2,3-de]naphthalen-8-ol] |
